ChEMBL document CHEMBL6087483 (J Med Chem, 2025)
pIC50: −log10 of the molar value. Activity calls are given as the source filed them. The calls are words filed in the database; no cut-off is given here.

What was measured:
HCT-116 [1] = test: Antiproliferative activity against MTAP deleted human HCT-116 cells assessed as inhibition of cell viability by luminescence based cell titer-glo assay; assay type: functional
HCT-116 [2] = test: Antiproliferative activity against MTAP wild type human HCT-116 cells assessed as inhibition of cell viability by luminescence based cell titer-glo assay; assay type: functional
[3] = Cmax in male CD-1 mouse at 5 mg/kg, po or 1 mg/kg, iv measured upto 24 hrs; assay type: ADME, organism-based; conditions: in vivo
[4] = AUC (0 to 24 hrs) in male CD-1 mouse at 5 mg/kg, po or 1 mg/kg, iv measured upto 24 hrs; assay type: ADME, organism-based; conditions: in vivo
[5] = Oral bioavailability in male CD-1 mouse at 5 mg/kg or 1 mg/kg, iv measured upto 24 hrs; assay type: ADME, organism-based; conditions: in vivo
[6] = Volume of distribution at steady state in male Sprague-Dawley rat at 5 mg/kg, po or 1 mg/kg, iv measured upto 24 hrs; assay type: ADME, organism-based; conditions: in vivo
[7] = Cmax in male Sprague-Dawley rat at 5 mg/kg, po or 1 mg/kg, iv measured upto 24 hrs; assay type: ADME, organism-based; conditions: in vivo
[8] = AUC (0 to 24 hrs) in male Sprague-Dawley rat at 5 mg/kg, po or 1 mg/kg, iv measured upto 24 hrs; assay type: ADME, organism-based; conditions: in vivo
[9] = Oral bioavailability in male Sprague-Dawley rat at 5 mg/kg or 1 mg/kg, iv measured upto 24 hrs; assay type: ADME, organism-based; conditions: in vivo
[10] = Volume of distribution at steady state in male Beagle dog at 3 mg/kg, po or 1 mg/kg, iv measured upto 24 hrs; assay type: ADME, organism-based, Canis lupus familiaris; conditions: in vivo
[11] = Cmax in male Beagle dog at 3 mg/kg, po or 1 mg/kg, iv measured upto 24 hrs; assay type: ADME, organism-based, Canis lupus familiaris; conditions: in vivo
[12] = AUC (0 to 24 hrs) in male Beagle dog at 3 mg/kg, po or 1 mg/kg, iv measured upto 24 hrs; assay type: ADME, organism-based, Canis lupus familiaris; conditions: in vivo
[13] = Oral bioavailability in male Beagle dog at 3 mg/kg or 1 mg/kg, iv measured upto 24 hrs; assay type: ADME, organism-based, Canis lupus familiaris; conditions: in vivo
[14] = target: T1, Protein arginine N-methyltransferase 5 (Homo sapiens, UniProt O14744); test: Inhibition of PRMT5 (unknown origin) in presence of MTA
[15] = target: T1, Protein arginine N-methyltransferase 5; test: Inhibition of PRMT5 (unknown origin)
Lu-99 cell line [16] = test: Antiproliferative activity against MTAP null human Lu-99 cell line assessed as inhibition of cell viability measured after 10 days by luminescence based cell titer-glo assay; assay type: functional; conditions: Lu-99, 240 h
DOHH-2 = test: Antiproliferative activity against MTAP null human DOHH-2 cells assessed as inhibition of cell viability measured after 10 days by luminescence based cell titer-glo assay; assay type: functional; conditions: DOHH-2, 240 h
[17] = Antiproliferative activity against MTAP null human HCC15 cells assessed as inhibition of cell viability measured after 10 days by luminescence based cell titer-glo assay; assay type: functional; conditions: HCC15, 240 h
[18] = Antiproliferative activity against MTAP null human NCI-H647 cells assessed as inhibition of cell viability measured after 10 days by luminescence based cell titer-glo assay; assay type: functional; conditions: NCI-H647, 240 h
[19] = Antiproliferative activity against MTAP wild type human KURAMOCHI cells assessed as inhibition of cell viability measured after 10 days by luminescence based cell titer-glo assay; assay type: functional; conditions: 240 h
BT-20 = test: Antiproliferative activity against MTAP wild type human BT-20 cells assessed as inhibition of cell viability measured after 10 days by luminescence based cell titer-glo assay; assay type: functional; conditions: BT-20, 240 h
MDA-MB-436 = test: Antiproliferative activity against MTAP wild type human MDA-MB-436 cells assessed as inhibition of cell viability measured after 10 days by luminescence based cell titer-glo assay; assay type: functional; conditions: MDA-MB-436, 240 h
HCC95 = test: Antiproliferative activity against MTAP wild type human HCC95 cells assessed as inhibition of cell viability measured after 10 days by luminescence based cell titer-glo assay; assay type: functional; conditions: HCC95, 240 h
[20] = target: T1, Protein arginine N-methyltransferase 5; test: Inhibition of PRMT5 in MTAP deleted human Lu-99 cell line assessed as reduction in SDMA level at upto 1000 nM measured after 5 days by Western blot analysis; assay type: cell-based; conditions: time 5.0 day
[21] = target: T1, Protein arginine N-methyltransferase 5; test: Inhibition of PRMT5 in MTAP deleted human Lu-99 cell line assessed as decrease pRb (Ser807/811) level at upto 1000 nM measured after 5 days by Western blot analysis; assay type: cell-based; conditions: time 5.0 day
[22] = target: T1, Protein arginine N-methyltransferase 5; test: Inhibition of PRMT5 in MTAP deleted human Lu-99 cell line assessed as increase in p21 level at upto 1000 nM measured after 5 days by Western blot analysis; assay type: cell-based; conditions: time 5.0 day
[23] = target: T1, Protein arginine N-methyltransferase 5; test: Inhibition of PRMT5 in MTAP deleted human Lu-99 cell line assessed as increase in gammaH2AX level at upto 1000 nM measured after 5 days by Western blot analysis; assay type: cell-based; conditions: time 5.0 day
Lu-99 cell line [24] = test: Antitumor activity against human Lu-99 cell line xenografted in female BALB/c nude mouse model assessed as tumor growth inhibition administered once daily via oral gavage and measured upto 21 days by caliper method; assay type: functional; conditions: dose 25-200 mg/kg, time <= 21.0 day
Lu-99 cell line [25] = test: Antitumor activity against human Lu-99 cell line xenografted in female BALB/c nude mouse model assessed as tumor growth inhibition at 25 mg/kg administered once daily via oral gavage and measured upto 21 days by caliper method relative to control; assay type: functional; parameters: scale not given: the % may be the effect or the level left; conditions: time <= 21 day
Lu-99 cell line [26] = test: Antitumor activity against human Lu-99 cell line xenografted in female BALB/c nude mouse model assessed as tumor growth inhibition at 50 mg/kg administered once daily via oral gavage and measured upto 21 days by caliper method relative to control; assay type: functional; parameters: scale not given: the % may be the effect or the level left; conditions: time <= 21 day
Lu-99 cell line [27] = test: Antitumor activity against human Lu-99 cell line xenografted in female BALB/c nude mouse model assessed as tumor growth inhibition at 100 mg/kg administered once daily via oral gavage and measured upto 21 days by caliper method relative to control; assay type: functional; parameters: scale not given: the % may be the effect or the level left; conditions: time <= 21 day
Lu-99 cell line [28] = test: Antitumor activity against human Lu-99 cell line xenografted in female BALB/c nude mouse model assessed as tumor growth inhibition at 200 mg/kg administered once daily via oral gavage and measured upto 21 days by caliper method relative to control; assay type: functional; parameters: scale not given: the % may be the effect or the level left; conditions: time <= 21 day
[29] = target: T1, Protein arginine N-methyltransferase 5; test: In vivo inhibition of PRMT5 in female BALB/c nude mouse xenografted with human Lu-99 cell line assessed as inhibition of SDMA level administered once daily via oral gavage by Western blot analysis; assay type: functional, organism-based; conditions: dose 25-200 mg/kg
[30] = target: T1, Protein arginine N-methyltransferase 5; test: In vivo inhibition of PRMT5 in female BALB/c nude mouse xenografted with human Lu-99 cell line assessed as inhibition of SDMA level at 25 mg/kg administered once daily via oral gavage by Western blot analysis relative to control; assay type: functional, organism-based; parameters: scale not given: the % may be the effect or the level left
[31] = target: T1, Protein arginine N-methyltransferase 5; test: In vivo inhibition of PRMT5 in female BALB/c nude mouse xenografted with human Lu-99 cell line assessed as inhibition of SDMA level at 50 mg/kg administered once daily via oral gavage by Western blot analysis relative to control; assay type: functional, organism-based; parameters: scale not given: the % may be the effect or the level left
[32] = target: T1, Protein arginine N-methyltransferase 5; test: In vivo inhibition of PRMT5 in female BALB/c nude mouse xenografted with human Lu-99 cell line assessed as inhibition of SDMA level at 100 mg/kg administered once daily via oral gavage by Western blot analysis relative to control; assay type: functional, organism-based; parameters: scale not given: the % may be the effect or the level left
[33] = target: T1, Protein arginine N-methyltransferase 5; test: In vivo inhibition of PRMT5 in female BALB/c nude mouse xenografted with human Lu-99 cell line assessed as inhibition of SDMA level at 200 mg/kg administered once daily via oral gavage by Western blot analysis relative to control; assay type: functional, organism-based; parameters: scale not given: the % may be the effect or the level left
[34] = Toxicity in female BALB/c nude mouse assessed as drug tolerance at 25 to 200 mg/kg, po administered once daily for 21 days; assay type: organism-based; conditions: in vivo, 504 h, dose 25-200 mg/kg, time 21 day
[35] = Toxicity in female BALB/c nude mouse assessed as effect on body weight loss at 25 to 200 mg/kg, po administered once daily for 21 days; assay type: organism-based; conditions: in vivo, 504 h, dose 25-200 mg/kg, time 21 day
[36] = Selectivity ratio of IC50 for antiproliferative activity against MTAP wild type human HCT-116 cells to IC50 for antiproliferative activity against MTAP deleted human HCT-116 cells; assay type: functional

T1 sequence (O14744 whole entry): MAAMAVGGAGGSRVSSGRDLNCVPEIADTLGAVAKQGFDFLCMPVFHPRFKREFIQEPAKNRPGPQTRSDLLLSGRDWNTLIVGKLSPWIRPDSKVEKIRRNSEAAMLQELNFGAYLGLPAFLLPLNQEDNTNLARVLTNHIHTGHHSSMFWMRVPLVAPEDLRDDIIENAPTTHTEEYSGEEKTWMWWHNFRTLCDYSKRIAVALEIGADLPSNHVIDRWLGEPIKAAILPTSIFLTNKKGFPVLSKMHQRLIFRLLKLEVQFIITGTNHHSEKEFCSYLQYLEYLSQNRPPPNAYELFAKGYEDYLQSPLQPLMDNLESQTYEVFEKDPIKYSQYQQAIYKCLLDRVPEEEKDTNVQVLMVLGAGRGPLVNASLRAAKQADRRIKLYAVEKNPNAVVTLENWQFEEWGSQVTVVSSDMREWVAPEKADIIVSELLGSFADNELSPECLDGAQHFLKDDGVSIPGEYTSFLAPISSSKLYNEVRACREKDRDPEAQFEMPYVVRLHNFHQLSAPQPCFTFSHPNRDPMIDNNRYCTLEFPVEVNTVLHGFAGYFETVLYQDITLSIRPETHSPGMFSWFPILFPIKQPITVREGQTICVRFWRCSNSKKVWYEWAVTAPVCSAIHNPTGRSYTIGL

Compound: N#Cc1ccc(N2C[C@@H]3C[C@H]2CN3C(=O)c2ccc3nc(N)c4c(c3c2)COC4)cc1
- pIC50 (HCT-116 [1]): 5.50

Compound: CN(C(=O)c1ccc2nc(N)c3c(c2c1)COC3)[C@@H]1CCN(c2ccccc2)C1
- pIC50 (HCT-116 [1]): 5.99

Compound: CN(C(=O)c1ccc2nc(N)c3c(c2c1)COC3)[C@@H]1CCN(c2ccc(S(C)(=O)=O)cc2)C1
- pIC50 (HCT-116 [1]): 6.19
- pIC50 (HCT-116 [2]): < 5.00

Compound: N#Cc1cccc(N2C[C@@H]3C[C@H]2CN3C(=O)c2ccc3nc(N)c4c(c3c2)COC4)c1
- pIC50 (HCT-116 [1]): 5.43

Compound: CN(C(=O)c1ccc2nc(N)c3c(c2c1)COC3)[C@@H]1CCCN(c2ccccc2)C1
- pIC50 (HCT-116 [1]): < 5.00

Compound: CN(C(=O)c1cc2c3c(c(N)nc2cc1F)COC3)[C@@H]1CCN(c2ccc(C#N)cc2)C1
- pIC50 (HCT-116 [1]): 7.82
- pIC50 (HCT-116 [2]): 5.72
- Cmax [3]: 1720 ng/mL
- AUC [4]: 6900 ng·h/mL
- bioavailability [5]: 105%
- Vdss [6]: 1.52 L/kg
- Cmax [7]: 1020 ng/mL
- AUC [8]: 5610 ng·h/mL
- bioavailability [9]: 81%
- Vdss [10]: 1.87 L/kg
- Cmax [11]: 804 ng/mL
- AUC [12]: 6140 ng·h/mL
- bioavailability [13]: 82.5%
- pIC50 [14]: 8.33
- pIC50 [15]: 7.17
- pIC50 (Lu-99 cell line [16]): 7.66
- pIC50 (DOHH-2): 7.68
- pIC50 [17]: 8.18
- pIC50 [18]: 6.93
- pIC50 [19]: 5.53
- pIC50 (BT-20): < 5.00
- pIC50 (MDA-MB-436): 5.31
- pIC50 (HCC95): 5.56
- inhibition [20]: Active
- inhibition [21]: Active
- inhibition [22]: Active
- inhibition [23]: Active
- Activity (Lu-99 cell line [24]): Dose-dependent-effect
- Activity (Lu-99 cell line [25]): 71%
- Activity (Lu-99 cell line [26]): 76%
- Activity (Lu-99 cell line [27]): 94%
- Activity (Lu-99 cell line [28]): 102%
- Activity [29]: Dose-dependent-effect
- Activity [30]: 43%
- Activity [31]: 49%
- Activity [32]: 68%
- Activity [33]: 85%
- Activity [34]: Non-toxic
- Activity [35]: Non-toxic

Compound: Cn1ncc(-c2ccc3c(=O)[nH]nc(CN)c3c2)c1-c1c(F)c(Cl)cc(OC2CC2)c1C#N
- Ratio IC50 [36]: 73

Compound: CN(C(=O)c1ccc2nc(N)c3c(c2c1)COC3)[C@@H]1CCN(c2ccc(C(F)(F)F)cc2)C1
- pIC50 (HCT-116 [1]): 5.96
- pIC50 (HCT-116 [2]): < 5.00

Compound: Nc1nc2ccc(C(=O)N3C[C@H]4C[C@@H]3CN4c3ccccc3)cc2c2c1COC2
- pIC50 (HCT-116 [1]): 5.61

Compound: CN(C(=O)c1ccc2nc(N)c3c(c2c1)COC3)[C@@H]1CCN(c2cccc(C#N)c2)C1
- pIC50 (HCT-116 [1]): 6.50
- pIC50 (HCT-116 [2]): 5.18

Compound: CN(C(=O)c1ccc2nc(N)c3c(c2c1)COC3)[C@H]1CCN(c2ccccc2)C1
- pIC50 (HCT-116 [1]): 5.70

Compound: CN(C(=O)c1ccc2nc(N)c3c(c2c1)COC3)[C@@H]1CCN(c2ccc(C#N)cc2)C1
- pIC50 (HCT-116 [1]): 7.02
- pIC50 (HCT-116 [2]): 5.11
- Ratio IC50 [36]: 82

Compound: CN(C(=O)c1ccc2nc(N)c3c(c2c1)COC3)C1CCN(c2ccccc2)CC1
- pIC50 (HCT-116 [1]): 5.41
